Measurements taken from patent US9494592B2, “Reaction-based fluorescent probes for sulfane sulfur and the application in bioimaging” (Washington State University, priority 2013, dated 2016).

What was measured:
[1] = Fluorescence response of probes to Na2S2 (H2S2 equivalent) in PBS buffer with CTAB; conditions: probe 5.0 μM, Na2S2 25 μM, 50 mM PBS pH 7.4, 1 mM CTAB, rt
Method: (§1) The stock solution of SSP1 (1 mM) and SSP2 (1 mM) were prepared in CH3CN, respectively. The solutions of various testing species were prepared from Cysteine (Cys), GSH, Homocysteine (Hcy), Glutathione disulfide (GSSG), Na2S.9H2O, Na2S2O3, Na2SO3, Na2SO4, Na2S2 in 50 mM PBS buffer. The stock solution of Cetrimonium bromide (CTAB, 100 mM) and S8 (10 mM) were prepared in EtOH, respectively. The stock solution of Cys-polysulfide (10 mM) was prepared in CH3CN. All the test solution need to be freshly prepared.
Unless otherwise noted, all the measurements were carried out for 10 min at 25° C. in 50 mM PBS buffer (pH 7.4) with 1 mM CTAB according to the following procedure. In a test tube, 3.5 mL of 50 mM PBS buffer (pH 7.4) and 40 μL of the stock solution of CTAB were mixed, and then added 20 μL of the stock solution of SSP1 or SSP2. The resulting solution was mixed well, followed by addition of a requisite volume of testing species sample solution. The final volume of the reaction solution was adjusted to 4 mL with 50 mM PBS buffer (pH 7.4). After mixing and then standing for 10 min at room temperature, a 4-mL portion of the reaction solution was transferred into a 1-cm quartz cell to measure fluorescence with λex=380 nm (for SSP1) or 482 nm (SSP2). In the meantime, a blank solution containing no testing species sample was prepared and measured under the same conditions for comparison. […]

[2] = Effect of pH on probe fluorescence and stability; assay type: physicochemical; conditions: probe 5.0 μM, 50 mM PBS, 1 mM CTAB
Method: FIGS. 2A-B Fluorescence intensity changes of (FIG. 2A) 5.0 μM SSP1 and (FIG. 2B) 5.0 μM SSP2 at different pH values in the absence (▪) or presence (●) of Na2S2 (25 μM). The reactions were carried out for 10 min at 25° C. in 50 mM PBS buffer with 1 mM CTAB. Data (A) were acquired at 458 nm and excited at 380 nm. Data (B) were acquired at 518 nm and excited at 482 nm.
Unless otherwise noted, all the measurements were carried out for 10 min at 25° C. in 50 mM PBS buffer (pH 7.4) with 1 mM CTAB according to the following procedure. In a test tube, 3.5 mL of 50 mM PBS buffer (pH 7.4) and 40 μL of the stock solution of CTAB were mixed, and then added 20 μL of the stock solution of SSP1 or SSP2. The resulting solution was mixed well, followed by addition of a requisite volume of testing species sample solution. The final volume of the reaction solution was adjusted to 4 mL with 50 mM PBS buffer (pH 7.4). After mixing and then standing for 10 min at room temperature, a 4-mL portion of the reaction solution was transferred into a 1-cm quartz cell to measure fluorescence with λex=380 nm (for SSP1) or 482 nm (SSP2). In the meantime, a blank solution containing no testing species sample was prepared and measured under the same conditions for comparison. All the measurements were repeated three times and data reported were averages.

[3] = Selectivity: fluorescence response to sulfane sulfur compounds; conditions: sulfane sulfurs at 25 μM (H2S2, Cys-polysulfide, S8), probe 5.0 μM, 10 min, PBS pH 7.4, 1 mM CTAB
Method: FIGS. 5A-B Fluorescence enhancement (F/F0) of 5.0 μM probes in the presence of various reactive sulfur species. (FIG. 5A) data of SSP1 (Ex/Em=380/458 nm). (FIG. 5B) data of SSP2 (Ex/Em=482/518 nm). The reactions were carried out for 10 min at rt in PBS buffer (50 mM, pH 7.4) with 1 mM CTAB. (1) probe alone; (2) 1 mM Cys; (3) 1 mM GSH; (4) 1 mM Hcy; (5) 100 μM GSSG; (6) 100 μM Na2S; (7) 100 μM Na2S2O3; (8) 100 μM Na2SO3; (9) 100 μM Na2SO4; (10) 25 μM Na2S2; (11) 25 μM Cys-polysulfide; (12) 25 μM S8.
as §1, with “The stock solution of Cys-polysulfide (10 mM) was prepared in CH3CN. All the test solution need to be freshly prepared.” left out
Unless otherwise noted, all the measurements were carried out for 10 min at 25° C. in 50 mM PBS buffer (pH 7.4) with 1 mM CTAB according to the following procedure. […] After mixing and then standing for 10 min at room temperature, a 4-mL portion of the reaction solution was transferred into a 1-cm quartz cell to measure fluorescence with λex=380 nm (for SSP1) or 482 nm (SSP2). In the meantime, a blank solution containing no testing species sample was prepared and measured under the same conditions for comparison. […]

H9c2 cells = assay: Fluorescence imaging of H2S2 in H9c2 cells; assay type: cell-based; conditions: SSP2 50 μM 20 min
Method: (§2) FIGS. 6A-F Fluorescence images of H2S2 detection in H9c2 cells (a, b, c) and HeLa cells (d, e, f). Cells on glass coverslips were incubated with SSP2 (50 μM) for 20 min, then washed and subjected to different treatments. (a & d) controls (no Na2S2 was added); (b & e) treated with 50 μM Na2S2; (c & f) treated with 100 μM Na2S2.
(§3) H9c2 cells and HeLa cells were grown on glass-bottom culture dishes (Corning Inc.) in DMEM supplemented with 10% (v/v) FBS, penicillin (100 U/mL) and streptomycin (100 μg/mL) at 37° C. under a humidified atmosphere containing 5% CO2. Before use, the adherent cells were washed one time with FBS-free DMEM. For intracellular H2S2 imaging, the cells were incubated with 50 μM SSP2 in FBS-free DMEM (containing 200 μM CTAB) at 37° C. for 20 min. After removal of excess probe and washed with PBS (pH 7.4), the cells were incubated with 50 or 100 uM Na2S2 for 30 min in PBS buffer (pH 7.4, containing 500 μM CTAB). Cell imaging was carried out after washing the cells three times with PBS (pH 7.4).

[4] = Fluorescence quantum yield determination; assay type: physicochemical; conditions: probe alone; aqueous PBS buffer solution (pH 7.4)
Method: The quantum yield was calculated according to the equation:^3 (Φsample=Φstandard*(Isample/Istandard)*(Astandard/Asample)*(nsample/nstandard)^2) Φ denotes the quantum yield; I denotes the area under the fluorescence band; A denotes the absorbance at the excitation wavelength; n denotes the refractive index of the solvent.
For quantum yield of SSP1, it was determined using 7-hydroxycoumarin as a standard by comparing the area under the corrected emission spectrum of the test sample with that of a solution of 7-hydroxycoumarin excited at 330 nm in sodium phosphate buffer (0.1 M; pH 7.4), which has a quantum efficiency of 0.76 according to the literature.
For quantum yield of SSP2, Quantum yield was determined using fluorescein as a standard by comparing the area under the corrected emission spectrum of the test sample with that of a solution of fluorescein excited at 490 nm in 0.1 N NaOH, which has a quantum efficiency of 0.85 according to the literature.

HeLa cells = assay: Fluorescence imaging of H2S2 in HeLa cells; assay type: cell-based; conditions: SSP2 50 μM 20 min
Method: as §2, §3

[5] = excited at 330 nm in sodium phosphate buffer (0.1 M; pH 7.4); cited from earlier work
[6] = then Na2S2 (50 or 100 μM) for 30 min

| fluorescence quantum yield (Φ) [4] | Structure (SMILES) | fluorescence intensity increase [1] [folds] | hydrolytic stability at basic pH [2] | fluorescence response (enhancement F/F0) [3] | cell fluorescence at 100 μM versus 50 μM Na2S2 (H9c2 cells; Na2S2 30 min) | cell fluorescence after Na2S2 treatment (H9c2 cells; [6]) | cell fluorescence without Na2S2 (H9c2 cells; washed, no Na2S2) | cell fluorescence at 100 μM versus 50 μM Na2S2 (HeLa cells; Na2S2 30 min) | cell fluorescence after Na2S2 treatment (HeLa cells; [6]) | cell fluorescence without Na2S2 (HeLa cells; washed, no Na2S2) | quantum efficiency of standard [5] |
| --- | --- | --- | --- | --- | --- | --- | --- | --- | --- | --- | --- |
| 0.05 | COc1ccc2c(c1)Oc1cc(OC(=O)c3ccccc3S)ccc1C21OC(=O)c2ccccc21 (stereo not drawn) [SSP2] | 50 | remains stable up to pH 9 | 50˜60 folds | obviously stronger fluorescence | strong fluorescence | No significant fluorescent cells | obviously stronger fluorescence | strong fluorescence | No significant fluorescent cells |  |
|  | O=c1ccc2ccc(O)cc2o1 [7-hydroxycoumarin] |  |  |  |  |  |  |  |  |  | 0.76 |
| 0.06 | O=C(Oc1ccc2ccc(=O)oc2c1)c1ccccc1S [SSP1] | 25 | above pH 8, SSP1 undergoes small amount of hydrolysis | 26˜33 folds |  |  |  |  |  |  |  |
